This passage reports Activity results from ChEMBL document CHEMBL3045137, “Synthesis and evaluation of the hypoglycemic and hypolipidemic activity of novel 5-benzylidene-2,4-thiazolidinedione analogs in a type-2 diabetes model” (2011).

What all share (type): functional
What all share (parameters): scale not given: the % may be the effect or the level left

For assay [1], the system named is Rattus norvegicus. Description: Hypoglycemic activity in high fat diet fed Rattus norvegicus Sprague-Dawley (rat) type-2 diabetes model assessed as reduction in streptozotocin-induced blood glucose level at 20 mg/kg/day, po for 14 days measured after treatment.
The test system of assay [2] is Rattus norvegicus. The assay is described as follows: Hypolipidemic activity in high fat diet fed Rattus norvegicus Sprague-Dawley (rat) type-2 diabetes model assessed as reduction in streptozotocin-induced triglyceride level at 20 mg/kg/day, po for 14 days measured after treatment.
Assay [3] concerns Rattus norvegicus. The assay is described as follows: Hypolipidemic activity in high fat diet fed Rattus norvegicus Sprague-Dawley (rat) type-2 diabetes model assessed as reduction in streptozotocin-induced cholesterol level at 20 mg/kg/day, po for 14 days measured after treatment.
In assay [4] the test system is Rattus norvegicus. The assay is described as follows: Hypoglycemic activity in high fat diet fed Rattus norvegicus Sprague-Dawley (rat) type-2 diabetes model assessed as reduction in streptozotocin-induced blood glucose level at 10 mg/kg/day, po for 14 days measured after treatment.
Assay [5] relates to Rattus norvegicus. The assay is described as follows: Hypolipidemic activity in high fat diet fed Rattus norvegicus Sprague-Dawley (rat) type-2 diabetes model assessed as reduction in streptozotocin-induced cholesterol level at 10 mg/kg/day, po for 14 days measured after treatment.
The subject of assay [6] is Rattus norvegicus. Description: Hypolipidemic activity in high fat diet fed Rattus norvegicus Sprague-Dawley (rat) type-2 diabetes model assessed as reduction in streptozotocin-induced triglyceride level at 10 mg/kg/day, po for 14 days measured after treatment.

`O=C(COc1ccc(/C=C2\SC(=O)NC2=O)cc1)Nc1ncc([N+](=O)[O-])s1`: the Activity in assay [1] was 56.08%; in assay [2], 78.11%; in assay [3], 92.46%.
In the case of `CCc1ccc(CCOc2ccc(CC3SC(=O)NC3=O)cc2)nc1.Cl` (centres undefined) [PIOGLITAZONE HYDROCHLORIDE], the Activity in assay [4] is 51.57%; in assay [5] it was 86.83%; in assay [6], 78.38%.
In the case of `NC(=O)c1cc(C(=O)COc2ccc(/C=C3\SC(=O)NC3=O)cc2)ccc1O`, the Activity in assay [1] amounted to 64.43%; in assay [2], 74.18%; in assay [3] it was 89.7%.
